The target in experiment [1] is ErbB3 (Homo sapiens, UniProt P21860). Nature of the experiment: Single-molecule imaging of CHO cell expressing ErbB3-GFP, MSD ratio HRG-treated/untreated. It is filed as cell-based. The conditions noted are these: drug 0.1 to 10,000 nM; HRG saturated (>30 nM); concentration-dependent; FIG. 8A. How it is done: FIGS. 8A and 8B show the relationship between the drug (Sapitinib or Afaitinib) concentration and the receptor diffusion dynamics (MSDδt=500 ms ratio) when the HRG concentration is saturated (>30 nM); here, FIG. 8A is the result for Sapitinib and FIG. 8B is the result for Afaitinib. […] Therefore, it was confirmed that the effect of the phosphorylation inhibitor can be estimated from the change in the molecular dynamics by measuring the diffusion dynamics and calculating the ratio of the MSD values, even for the RTK receptor other than the EGFR.

For experiment [2], the target named is T1, EGFR (Homo sapiens, UniProt P00533). Nature of the experiment: EGFR immunostaining, subcellular localization of the EGFR. It is filed as cell-based. The conditions noted are these: EGF not necessary.
For experiment [3], the target named is T1, EGFR. Nature of the experiment: Drug evaluation / FDA-approved drug library screening using MSDδt=500 ms ratio before and after EGF addition, CHO cells expressing EGFR-GFP. The conditions noted are these: for MSDδt=500 ms ratio compared with the control: compound addition changed MSDδt=500 ms in an EGF-independent manner; for hit in primary screening (MSDδt=500 ms ratio equal to or greater than threshold = control average + 3×standard deviation): FDA-approved drug library (1134 drugs), EGF 60 nM, among the 53 hit compounds.
Description: Single-molecule imaging was performed in the same way as above, except that the gefitinib-untreated CHO cell was used instead of the gefitinib-treated CHO cell as the control, and then the MSDδt=500 ms ratio was calculated.
Single-molecule imaging was also performed for the control in order to determine the threshold. Single-molecule imaging for the control was performed in the same way as above, except that the candidate compound was not placed in the wells.
Compounds that are within a significance level of 5% and increased in a concentration-dependent manner were selected, from which the compounds that are difficult to be measured due to coloration or cause the cell damage were excluded.

The structures appear in SMILES notation.

We go through six compounds from patent US20260243779A1, “METHOD FOR EVALUATING RECEPTOR-TYPE TYROSINE KINASE ACTIVITY” (The University of Osaka, priority 2023, published 2026).

T1 sequence (P00533 25-1210): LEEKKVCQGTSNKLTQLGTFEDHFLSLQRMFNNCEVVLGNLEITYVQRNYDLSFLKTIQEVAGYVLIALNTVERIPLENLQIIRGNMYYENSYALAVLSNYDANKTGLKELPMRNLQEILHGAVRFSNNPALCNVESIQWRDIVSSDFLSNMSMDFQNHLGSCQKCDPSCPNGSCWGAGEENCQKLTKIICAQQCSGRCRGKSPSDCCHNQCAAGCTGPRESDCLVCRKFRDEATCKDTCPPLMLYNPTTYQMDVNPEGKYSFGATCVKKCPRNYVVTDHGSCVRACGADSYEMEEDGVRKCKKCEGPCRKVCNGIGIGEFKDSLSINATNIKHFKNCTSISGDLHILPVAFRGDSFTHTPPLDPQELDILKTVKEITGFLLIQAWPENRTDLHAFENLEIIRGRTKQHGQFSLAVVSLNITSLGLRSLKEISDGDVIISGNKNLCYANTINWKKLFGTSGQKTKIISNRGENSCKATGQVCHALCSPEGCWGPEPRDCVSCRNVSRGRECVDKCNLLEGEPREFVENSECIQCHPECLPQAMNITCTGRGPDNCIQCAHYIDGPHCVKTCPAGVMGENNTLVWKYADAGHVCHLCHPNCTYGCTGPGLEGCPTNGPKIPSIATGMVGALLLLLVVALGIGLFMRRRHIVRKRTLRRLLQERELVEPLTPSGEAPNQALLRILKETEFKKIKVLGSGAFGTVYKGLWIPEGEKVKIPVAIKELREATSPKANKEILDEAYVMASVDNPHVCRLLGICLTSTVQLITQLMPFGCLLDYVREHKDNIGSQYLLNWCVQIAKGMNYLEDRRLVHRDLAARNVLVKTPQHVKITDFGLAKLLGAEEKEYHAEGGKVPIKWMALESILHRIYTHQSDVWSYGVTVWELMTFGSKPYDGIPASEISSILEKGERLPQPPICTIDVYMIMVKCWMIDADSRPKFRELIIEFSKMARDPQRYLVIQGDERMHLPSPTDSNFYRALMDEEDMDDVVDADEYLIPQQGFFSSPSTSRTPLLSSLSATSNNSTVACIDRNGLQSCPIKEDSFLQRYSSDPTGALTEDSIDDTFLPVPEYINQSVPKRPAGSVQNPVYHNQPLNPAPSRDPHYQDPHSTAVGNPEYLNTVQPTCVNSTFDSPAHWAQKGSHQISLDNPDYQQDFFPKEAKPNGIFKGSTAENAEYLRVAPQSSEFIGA
Chain of ErbB3 (P21860 20-1342): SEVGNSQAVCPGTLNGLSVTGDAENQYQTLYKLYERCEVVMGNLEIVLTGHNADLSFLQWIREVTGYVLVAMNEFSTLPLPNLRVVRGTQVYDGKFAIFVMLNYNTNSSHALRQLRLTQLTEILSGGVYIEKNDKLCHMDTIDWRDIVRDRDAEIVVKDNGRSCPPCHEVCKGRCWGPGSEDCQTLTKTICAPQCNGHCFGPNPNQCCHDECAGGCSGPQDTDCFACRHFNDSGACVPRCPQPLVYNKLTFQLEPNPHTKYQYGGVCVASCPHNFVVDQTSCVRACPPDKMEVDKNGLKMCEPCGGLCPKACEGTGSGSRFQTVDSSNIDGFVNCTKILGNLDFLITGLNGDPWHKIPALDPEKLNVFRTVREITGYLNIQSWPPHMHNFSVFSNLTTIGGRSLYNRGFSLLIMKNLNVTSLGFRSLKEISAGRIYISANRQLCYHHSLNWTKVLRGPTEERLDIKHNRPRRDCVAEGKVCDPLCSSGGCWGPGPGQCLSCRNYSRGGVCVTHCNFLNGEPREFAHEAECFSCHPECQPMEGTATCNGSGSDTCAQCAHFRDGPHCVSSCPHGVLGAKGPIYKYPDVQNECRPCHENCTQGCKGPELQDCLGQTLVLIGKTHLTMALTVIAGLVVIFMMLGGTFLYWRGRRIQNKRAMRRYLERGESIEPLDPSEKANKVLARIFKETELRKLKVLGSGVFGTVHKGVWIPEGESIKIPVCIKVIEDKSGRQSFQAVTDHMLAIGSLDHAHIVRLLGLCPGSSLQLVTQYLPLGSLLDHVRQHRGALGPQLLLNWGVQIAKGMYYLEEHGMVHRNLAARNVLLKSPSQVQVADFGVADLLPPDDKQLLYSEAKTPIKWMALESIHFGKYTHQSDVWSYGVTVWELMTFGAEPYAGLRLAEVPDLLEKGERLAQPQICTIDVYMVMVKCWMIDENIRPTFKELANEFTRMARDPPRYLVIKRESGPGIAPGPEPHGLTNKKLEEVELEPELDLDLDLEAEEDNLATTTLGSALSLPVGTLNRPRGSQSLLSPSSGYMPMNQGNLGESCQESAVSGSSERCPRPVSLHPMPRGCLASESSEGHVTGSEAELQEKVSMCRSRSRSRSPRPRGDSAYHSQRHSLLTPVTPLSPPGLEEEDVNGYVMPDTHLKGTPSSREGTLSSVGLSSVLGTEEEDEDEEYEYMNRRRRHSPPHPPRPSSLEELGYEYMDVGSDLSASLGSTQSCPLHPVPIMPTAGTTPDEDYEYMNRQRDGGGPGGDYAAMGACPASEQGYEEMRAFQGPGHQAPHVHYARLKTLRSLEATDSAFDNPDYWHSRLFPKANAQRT

With `CNC(=O)CN1CCC(Oc2cc3c(Nc4cccc(Cl)c4F)ncnc3cc2OC)CC1` [Sapitinib], the “effect on reduction of receptor mobility (MSDδt=500 ms ratio) by HRG, ErbB3” value in experiment [1] is “inhibited the reduction of the receptor mobility”.
`Cc1cn(-c2cc(NC(=O)c3ccc(C)c(Nc4nccc(-c5cccnc5)n4)c3)cc(C(F)(F)F)c2)cn1` [Nilotinib]: in experiment [2], the “effect on the subcellular localization of the EGFR” value (shortened to “effect … of the EGFR”) is recorded as “EGFR was incorporated into the cell”. Also, the “MSDδt=500 ms ratio compared with the control” value in experiment [3] is recorded as “significantly different from the control”.
With `O=C(OCC(O)CO)c1ccccc1Nc1ccnc2cc(Cl)ccc12` (stereo not drawn) [Glafenine], in experiment [2], the “effect … of the EGFR” value is “EGFR was incorporated into the cell”. Further, the “MSDδt=500 ms ratio compared with the control” value in experiment [3] is on record as “significantly different from the control”.
On to `COc1cccc2c1C(=O)c1c(O)c3c(c(O)c1C2=O)C[C@@](O)(C(C)=O)C[C@@H]3O[C@H]1C[C@H](N)[C@H](O)[C@H](C)O1` [Daunorubicin], for which the “hit in primary screening (MSDδt=500 ms ratio equal to or greater than threshold = control average + 3×standard deviation)” value in experiment [3] is reported as “included”.
The same measure, in the same setting: the result for `C#Cc1cccc(Nc2ncnc3cc(OCCOC)c(OCCO)cc23)c1` [OSI-420] reads “included”.
Regarding `Oc1c(Br)cc(Br)c2cccnc12` [Broxyquinoline], in experiment [2], the “effect … of the EGFR” value was “EGFR was incorporated into the cell”. Further, the “MSDδt=500 ms ratio compared with the control” value in experiment [3] is listed as “significantly different from the control”.
